{"source": "patent US20100137398A1", "about": "“USE OF HDAC INHIBITORS FOR THE TREATMENT OF GASTROINTESTINAL CANCERS” (NOVARTIS AG, priority 2007, published 2010)", "assay_in_all_cases": "Monolayer growth inhibition assay (MTT/MTS)", "type_in_all_cases": "cell-based", "key": {"[1]": {"tested_on": "Colo320HSR colon cancer cell line", "description": "(§1) The MTT is a colorimetric assay to determine the cell proliferation rate. The yellow tetrazolium MTT (3-(4, 5-dimethylthiazolyl-2)-2, 5-diphenyltetrazolium bromide) is reduced, by metabolically active cells, in part by the action of dehydrogenase enzymes, to generate reducing equivalents such as NADH and NADPH. The resulting intracellular purple formazan can be solubilized and quantified by spectrophotometric means. The signals produced is directly proportional to the cell numbers. Describing the MTT assay in detail, experiments were done using six-point or 9 point drug titrations in multi-well tissue culture dishes, with outer rows left empty. Cells were suspended in complete media at densities of between 10^3 and 10^4 cell/ml, respectively, and added per well. The appropriate medium (200 μl) was then added. Twenty-four hours later, 10 μl of MTS solution, were added to one plates to determine the activity at the time of compound addition (T0). This plate was incubated at 37° for 4 hours and the optical density was measured on a Molecular Devices Thermomax at 490 nm using the Softmax program. The T0 plate served as a reference for initial activity at the beginning of the experiment.\n(§2) Compound addition began 24 hours after seeding, the same time as the T0 determination. Serial dilutions at 4-fold 2-fold, 1-fold, 0.5-fold, 0.25-fold and 0.125-fold of previously determined IC50 values of each compound were made in a 96-deep well plate with the highest concentrations on the edge of the plate. Each of the six dilutions were added in triplicate and complete medium was added to the empty outer rows, without cells. The compounds were added to the plates singly or in combination with Compound III (LBH589). The plates were incubated at 37° C. for 72 hours from seeding. The MTS solution was added (as for the T0 plate) and read four hours later. In order to analyze the data, the average value of media alone (background) was subtracted from each experimental well and the triplicate values were averaged for each compound dilution. The following formulas were used to calculate percent growth.\n(§3) If X>T0, % Growth=100×(X−T0)/(GC−T0))\n(§4) If X<T0, % Growth=100×(X−T0)/T0)\n(§5) T0=average value of T0 minus background\n(§6) GC=average value of untreated cells (in triplicate) minus background X=average value, of compound treated cells (in triplicate) minus background\n(§7) IC50 the concentration of LBH589 required to inhibit cell growth by 50% and LD50s the concentration required to reduce cell number (kill cells) to 50% the original innoculum were determined. The “% Growth” was plotted against compound concentration and used to calculate IC50s and LD50s, employing the user-defined spline function in Microsoft Excel.\n(§8) Colon cancer cell lines were treated with DMSO vehicle control or varying concentrations of LBH589 for 3 days. Cell proliferation was measured on the day of cell plating and on the third day post-treatment. IC50 and LD50 values were calculated as described above."}, "[2]": {"tested_on": "CL-11 colon cancer cell line", "description": "as §1, §2, §3, §4, §5, §6, §7, §8"}, "[3]": {"tested_on": "KM20L2 colon cancer cell line", "description": "as §1, §2, §3, §4, §5, §6, §7, §8"}, "[4]": {"tested_on": "HCT8 colon cancer cell line", "description": "as §1, §2, §3, §4, §5, §6, §7, §8"}, "[5]": {"tested_on": "MDST8 colon cancer cell line", "description": "as §1, §2, §3, §4, §5, §6, §7, §8"}, "[6]": {"tested_on": "SW403 colon cancer cell line", "description": "as §1, §2, §3, §4, §5, §6, §7, §8"}, "[7]": {"tested_on": "Colo201 colon cancer cell line", "description": "as §1, §2, §3, §4, §5, §6, §7, §8"}, "[8]": {"tested_on": "LS1034 colon cancer cell line", "description": "as §1, §2, §3, §4, §5, §6, §7, §8"}, "[9]": {"tested_on": "LS174T colon cancer cell line", "description": "as §1, §2, §3, §4, §5, §6, §7, §8"}, "[10]": {"tested_on": "RKO colon cancer cell line", "description": "as §1, §2, §3, §4, §5, §6, §7, §8"}, "[11]": {"tested_on": "HCT116 Bax −/− colon cancer cell line", "description": "as §1, §2, §3, §4, §5, §6, §7, §8"}, "[12]": {"tested_on": "T84 colon cancer cell line", "description": "as §1, §2, §3, §4, §5, §6, §7, §8"}, "[13]": {"tested_on": "SW837 colon cancer cell line", "description": "as §1, §2, §3, §4, §5, §6, §7, §8"}, "[14]": {"tested_on": "SW1116 colon cancer cell line", "description": "as §1, §2, §3, §4, §5, §6, §7, §8"}, "[15]": {"tested_on": "C170 colon cancer cell line", "description": "as §1, §2, §3, §4, §5, §6, §7, §8"}, "[16]": {"tested_on": "Colo678 colon cancer cell line", "description": "as §1, §2, §3, §4, §5, §6, §7, §8"}, "[17]": {"tested_on": "Colo206F colon cancer cell line", "description": "as §1, §2, §3, §4, §5, §6, §7, §8"}, "[18]": {"tested_on": "HT115 colon cancer cell line", "description": "as §1, §2, §3, §4, §5, §6, §7, §8"}, "[19]": {"tested_on": "HT29 colon cancer cell line", "description": "as §1, §2, §3, §4, §5, §6, §7, §8"}, "[20]": {"tested_on": "HT55 colon cancer cell line", "description": "as §1, §2, §3, §4, §5, §6, §7, §8"}, "[21]": {"conditions": "3 days, concentration reducing cell number to 50% of original inoculum"}}, "data": [{"smiles": "Cc1[nH]c2ccccc2c1CCNCc1ccc(/C=C/C(=O)NO)cc1", "note": "[LBH589, N-hydroxy-3-[4-[[[2-(2-methyl-1H-indol-3-yl)ethyl]-amino]methyl]phenyl]-2E-2-propenamide]", "values": [{"measurement": "LD50", "setting": "[1]; [21]", "value": ">10", "unit": "µM"}, {"measurement": "IC50", "setting": "[1]; Homo sapiens, COLO-320-HSR, 72 h, 3 days treatment", "value": 13.8, "unit": "nM"}, {"measurement": "IC50", "setting": "[2]; 72 h, CL-11, 3 days treatment", "value": 3.54, "unit": "nM"}, {"measurement": "LD50", "setting": "[2]; CL-11, 3 days, concentration reducing cell number to 50% of original inoculum", "value": 25.92, "unit": "nM"}, {"measurement": "IC50", "setting": "[3]; Homo sapiens, KM-20L2, 72 h, KM20L2, 3 days treatment", "value": 14.6, "unit": "nM"}, {"measurement": "LD50", "setting": "[3]; KM20L2, 3 days, concentration reducing cell number to 50% of original inoculum", "value": 16.95, "unit": "nM"}, {"measurement": "LD50", "setting": "[4]; HCT8, 3 days, concentration reducing cell number to 50% of original inoculum", "value": 77.70, "unit": "nM"}, {"measurement": "IC50", "setting": "[4]; Homo sapiens, HCT-8, 72 h, HCT8, 3 days treatment", "value": 4.94, "unit": "nM"}, {"measurement": "IC50", "setting": "[5]; 72 h, MDST8, 3 days treatment", "value": 4.87, "unit": "nM"}, {"measurement": "LD50", "setting": "[5]; MDST8, 3 days, concentration reducing cell number to 50% of original inoculum", "value": 48.44, "unit": "nM"}, {"measurement": "IC50", "setting": "[6]; Homo sapiens, SW-403, 72 h, SW403, 3 days treatment", "value": 2.03, "unit": "nM"}, {"measurement": "LD50", "setting": "[6]; SW403, 3 days, concentration reducing cell number to 50% of original inoculum", "value": 9.84, "unit": "nM"}, {"measurement": "LD50", "setting": "[7]; Colo201, 3 days, concentration reducing cell number to 50% of original inoculum", "value": 20.14, "unit": "nM"}, {"measurement": "IC50", "setting": "[7]; Homo sapiens, COLO 201, 72 h, Colo201, 3 days treatment", "value": 15.1, "unit": "nM"}, {"measurement": "IC50", "setting": "[8]; Homo sapiens, LS-1034, 72 h, LS1034, 3 days treatment", "value": 76.7, "unit": "nM"}, {"measurement": "LD50", "setting": "[8]; LS1034, 3 days, concentration reducing cell number to 50% of original inoculum", "value": 227.83, "unit": "nM"}, {"measurement": "LD50", "setting": "[9]; [21]", "value": 87.41, "unit": "nM"}, {"measurement": "IC50", "setting": "[9]; Homo sapiens, 72 h, 3 days treatment", "value": 16.8, "unit": "nM"}, {"measurement": "IC50", "setting": "[10]; 72 h, 3 days treatment", "value": 5.57, "unit": "nM"}, {"measurement": "LD50", "setting": "[10]; [21]", "value": 2346.13, "unit": "nM"}, {"measurement": "LD50", "setting": "[11]; [21]", "value": ">10", "unit": "µM"}, {"measurement": "IC50", "setting": "[11]; Homo sapiens, HCT-116, 72 h, 3 days treatment", "value": 1.73, "unit": "nM"}, {"measurement": "IC50", "setting": "[12]; 72 h, T84, 3 days treatment", "value": 2.16, "unit": "nM"}, {"measurement": "LD50", "setting": "[12]; T84, 3 days, concentration reducing cell number to 50% of original inoculum", "value": 32.82, "unit": "nM"}, {"measurement": "IC50", "setting": "[13]; Homo sapiens, 72 h, SW837, 3 days treatment", "value": 0.66, "unit": "nM"}, {"measurement": "LD50", "setting": "[13]; SW837, 3 days, concentration reducing cell number to 50% of original inoculum", "value": 11.46, "unit": "nM"}, {"measurement": "IC50", "setting": "[14]; Homo sapiens, SW 1116, 72 h, SW1116, 3 days treatment", "value": 2.28, "unit": "nM"}, {"measurement": "LD50", "setting": "[14]; SW1116, 3 days, concentration reducing cell number to 50% of original inoculum", "value": 26.93, "unit": "nM"}, {"measurement": "LD50", "setting": "[15]; C170, 3 days, concentration reducing cell number to 50% of original inoculum", "value": 382.03, "unit": "nM"}, {"measurement": "IC50", "setting": "[15]; Homo sapiens, 72 h, C170, 3 days treatment", "value": 62.3, "unit": "nM"}, {"measurement": "LD50", "setting": "[16]; Colo678, 3 days, concentration reducing cell number to 50% of original inoculum", "value": 45.52, "unit": "nM"}, {"measurement": "IC50", "setting": "[16]; Homo sapiens, COLO-678, 72 h, Colo678, 3 days treatment", "value": 5.6, "unit": "nM"}, {"measurement": "LD50", "setting": "[17]; [21]", "value": ">10", "unit": "µM"}, {"measurement": "IC50", "setting": "[17]; COLO 206F, 72 h, 3 days treatment", "value": 10.1, "unit": "nM"}, {"measurement": "IC50", "setting": "[18]; 72 h, HT115, 3 days treatment", "value": 3.49, "unit": "nM"}, {"measurement": "LD50", "setting": "[18]; HT115, 3 days, concentration reducing cell number to 50% of original inoculum", "value": 31.02, "unit": "nM"}, {"measurement": "LD50", "setting": "[19]; HT29, 3 days, concentration reducing cell number to 50% of original inoculum", "value": 70.23, "unit": "nM"}, {"measurement": "IC50", "setting": "[19]; Homo sapiens, HT-29, 72 h, HT29, 3 days treatment", "value": 2.83, "unit": "nM"}, {"measurement": "LD50", "setting": "[20]; HT55, 3 days, concentration reducing cell number to 50% of original inoculum", "value": 334.52, "unit": "nM"}, {"measurement": "IC50", "setting": "[20]; Homo sapiens, 72 h, HT55, 3 days treatment", "value": 8.21, "unit": "nM"}]}]}
